According to ChEMBL document CHEMBL3885881, “DrugMatrix”:

Species on record: Rattus norvegicus
Assay: DrugMatrix - Regimen: Daily Repeat
Format: toxicity, organism-based, Sprague-Dawley
Design: regimen Daily Repeat, gender Male, age 6-8 weeks
Conditions: in vivo, po, route oral GAVAGE, […]; for ABSOLUTE BASOPHIL / ABSOLUTE EOSINOPHIL / ABSOLUTE LYMPHOCYTE / ABSOLUTE MONOCYTE / ABSOLUTE SEGMENTED NEUTROPHIL / BASOPHIL / EOSINOPHIL / ERYTHROCYTE COUNT / HEMATOCRIT / HEMOGLOBIN / LEUKOCYTE COUNT / LYMPHOCYTE / MEAN CORPUSCULAR HEMOGLOBIN / MEAN CORPUSCULAR HEMOGLOBIN CONCENTRATION / MEAN CORPUSCULAR VOLUME / MONOCYTE / NEUTROPHIL / NUCLEATED RED BLOOD CELLS / PLATELET COUNT: tissue Blood; for ALANINE AMINOTRANSFERASE / ALBUMIN / ALKALINE PHOSPHATASE / ASPARTATE AMINOTRANSFERASE / BLOOD UREA NITROGEN / CARBON DIOXIDE / CHLORIDE / CHOLESTEROL / CREATINE PHOSPHOKINASE / CREATININE / GLUCOSE / LACTATE DEHYDROGENASE / LIPASE / PHOSPHORUS / POTASSIUM / SODIUM / TOTAL BILIRUBIN / TOTAL PROTEIN / URIC ACID: tissue Plasma
[1] = 3 mg/kg, 120 h, dose level Low, time 5 day
[2] = 110 mg/kg, 72 h, dose level High, time 3 day
[3] = 110 mg/kg, 120 h, dose level High, time 5 day

`Cc1cccc(Nc2ccncc2S(=O)(=O)NC(=O)NC(C)C)c1` [TORSEMIDE] was tested, and the “ABSOLUTE BASOPHIL” value [1] was 0 CELLS/uL, the “ABSOLUTE EOSINOPHIL” value [1] was 64 CELLS/uL and the “ABSOLUTE LYMPHOCYTE” value [1] was 7502 CELLS/uL. For the same compound, the “ABSOLUTE MONOCYTE” value [1] was 142 CELLS/uL, the “ABSOLUTE SEGMENTED NEUTROPHIL” value [1] was 525.33 CELLS/uL and the BASOPHIL [1] was 0%. The EOSINOPHIL [1] was 0.67%, the “ERYTHROCYTE COUNT” value [1] was 5.57 x10E6/uL and the HEMATOCRIT [1] was 35.4%. For the same compound, the HEMOGLOBIN [1] was 13.63 G/DL, the “LEUKOCYTE COUNT” value [1] was 8.23 x10E3/uL and the LYMPHOCYTE [1] was 91.33%. The “MEAN CORPUSCULAR HEMOGLOBIN” value [1] was 24.57 pg, the “MEAN CORPUSCULAR HEMOGLOBIN CONCENTRATION” value [1] was 38.5 G/DL and the “MEAN CORPUSCULAR VOLUME” value [1] was 63.67 fL. The MONOCYTE [1] was 1.67%, the NEUTROPHIL [1] was 6.33% and the “NUCLEATED RED BLOOD CELLS” value [1] was 0 /100WBC. The “PLATELET COUNT” value [1] was 1174 x10E3/uL, the “ALANINE AMINOTRANSFERASE” value [1] was 54.67 u/L and the ALBUMIN [1] was 4 G/DL. For the same compound, the “ALKALINE PHOSPHATASE” value [1] was 376.67 u/L, the “ASPARTATE AMINOTRANSFERASE” value [1] was 76 u/L and the “BLOOD UREA NITROGEN” value [1] was 11.67 mg/dL. The “CARBON DIOXIDE” value [1] was 31.33 mmol/L, the CHLORIDE [1] was 100 MEQ/L and the CHOLESTEROL [1] was 63.67 mg/dL. For the same compound, the “CREATINE PHOSPHOKINASE” value [1] was 293.67 u/L, the CREATININE [1] was 0.14 mg/dL and the GLUCOSE [1] was 148.67 mg/dL. The “LACTATE DEHYDROGENASE” value [1] was 190.33 u/L, the LIPASE [1] was 10.33 u/L and the PHOSPHORUS [1] was 11.3 mg/dL. For the same compound, the POTASSIUM [1] was 6.36 MEQ/L, the SODIUM [1] was 144.87 MEQ/L and the “TOTAL BILIRUBIN” value [1] was 0.17 mg/dL. The “TOTAL PROTEIN” value [1] was 6.03 G/DL, the “URIC ACID” value [1] was 0.47 mg/dL and the “ABSOLUTE BASOPHIL” value [2] was 0 CELLS/uL. The “ABSOLUTE EOSINOPHIL” value [2] was 0 CELLS/uL, the “ABSOLUTE LYMPHOCYTE” value [2] was 16133.33 CELLS/uL and the “ABSOLUTE MONOCYTE” value [2] was 63.33 CELLS/uL. The “ABSOLUTE SEGMENTED NEUTROPHIL” value [2] was 1136.67 CELLS/uL, the BASOPHIL [2] was 0% and the EOSINOPHIL [2] was 0%. For the same compound, the “ERYTHROCYTE COUNT” value [2] was 5.8 x10E6/uL, the HEMATOCRIT [2] was 36.3% and the HEMOGLOBIN [2] was 14.23 G/DL. The “LEUKOCYTE COUNT” value [2] was 17.33 x10E3/uL, the LYMPHOCYTE [2] was 93.33% and the “MEAN CORPUSCULAR HEMOGLOBIN” value [2] was 24.53 pg. The “MEAN CORPUSCULAR HEMOGLOBIN CONCENTRATION” value [2] was 39.23 G/DL, the “MEAN CORPUSCULAR VOLUME” value [2] was 62.57 fL and the MONOCYTE [2] was 0.33%. For the same compound, the NEUTROPHIL [2] was 6.33%, the “NUCLEATED RED BLOOD CELLS” value [2] was 0 /100WBC and the “PLATELET COUNT” value [2] was 1008.33 x10E3/uL. For the same compound, the “ALANINE AMINOTRANSFERASE” value [2] was 60.33 u/L, the ALBUMIN [2] was 4.17 G/DL and the “ALKALINE PHOSPHATASE” value [2] was 282 u/L. The “ASPARTATE AMINOTRANSFERASE” value [2] was 86 u/L, the “BLOOD UREA NITROGEN” value [2] was 29.33 mg/dL and the “CARBON DIOXIDE” value [2] was 33.33 mmol/L. For the same compound, the CHLORIDE [2] was 93.33 MEQ/L, the CHOLESTEROL [2] was 69.33 mg/dL and the “CREATINE PHOSPHOKINASE” value [2] was 98.67 u/L. For the same compound, the CREATININE [2] was 0.32 mg/dL, the GLUCOSE [2] was 148 mg/dL and the “LACTATE DEHYDROGENASE” value [2] was 104.67 u/L. The LIPASE [2] was 12 u/L, the PHOSPHORUS [2] was 8.13 mg/dL and the POTASSIUM [2] was 5.2 MEQ/L. For the same compound, the SODIUM [2] was 142.37 MEQ/L, the “TOTAL BILIRUBIN” value [2] was 0.2 mg/dL and the “TOTAL PROTEIN” value [2] was 5.37 G/DL. The “URIC ACID” value [2] was 1.2 mg/dL, the “ABSOLUTE BASOPHIL” value [3] was 0 CELLS/uL and the “ABSOLUTE EOSINOPHIL” value [3] was 0 CELLS/uL. The “ABSOLUTE LYMPHOCYTE” value [3] was 12824.33 CELLS/uL, the “ABSOLUTE MONOCYTE” value [3] was 353.67 CELLS/uL and the “ABSOLUTE SEGMENTED NEUTROPHIL” value [3] was 788.67 CELLS/uL. For the same compound, the BASOPHIL [3] was 0%, the EOSINOPHIL [3] was 0% and the “ERYTHROCYTE COUNT” value [3] was 6.15 x10E6/uL. The HEMATOCRIT [3] was 38.4%, the HEMOGLOBIN [3] was 14.97 G/DL and the “LEUKOCYTE COUNT” value [3] was 13.97 x10E3/uL. The LYMPHOCYTE [3] was 92%, the “MEAN CORPUSCULAR HEMOGLOBIN” value [3] was 24.37 pg and the “MEAN CORPUSCULAR HEMOGLOBIN CONCENTRATION” value [3] was 38.97 G/DL. The “MEAN CORPUSCULAR VOLUME” value [3] was 62.5 fL, the MONOCYTE [3] was 2.33% and the NEUTROPHIL [3] was 5.67%. For the same compound, the “NUCLEATED RED BLOOD CELLS” value [3] was 0.33 /100WBC, the “PLATELET COUNT” value [3] was 1188.33 x10E3/uL and the “ALANINE AMINOTRANSFERASE” value [3] was 70 u/L. For the same compound, the ALBUMIN [3] was 4.5 G/DL, the “ALKALINE PHOSPHATASE” value [3] was 395.67 u/L and the “ASPARTATE AMINOTRANSFERASE” value [3] was 104 u/L. For the same compound, the “BLOOD UREA NITROGEN” value [3] was 29 mg/dL, the “CARBON DIOXIDE” value [3] was 38.33 mmol/L and the CHLORIDE [3] was 86.33 MEQ/L. The CHOLESTEROL [3] was 65.33 mg/dL, the “CREATINE PHOSPHOKINASE” value [3] was 234.67 u/L and the CREATININE [3] was 0.3 mg/dL. For the same compound, the GLUCOSE [3] was 176 mg/dL, the “LACTATE DEHYDROGENASE” value [3] was 220.33 u/L and the LIPASE [3] was 10.67 u/L. For the same compound, the PHOSPHORUS [3] was 8.93 mg/dL, the POTASSIUM [3] was 4.3 MEQ/L and the SODIUM [3] was 142.87 MEQ/L. For the same compound, the “TOTAL BILIRUBIN” value [3] was 0.1 mg/dL, the “TOTAL PROTEIN” value [3] was 6.83 G/DL and the “URIC ACID” value [3] was 0.6 mg/dL.
